Reference: patent publication US12378245B2, “Crystalline forms of an RSK inhibitor” (PHOENIX MOLECULAR DESIGNS, priority 2019, dated 2025)

Assays:
Assay type in all cases: physicochemical
[1] = Dynamic Vapor Sorption (DVS); conditions: for form by post-DVS XRPD analysis: after exposure to DVS humidity conditions
Experimental: Approximately, 10-20 mg of sample was placed into a mesh vapour sorption balance pan and loaded into a DVS Intrinsic dynamic vapour sorption balance by Surface Measurement Systems. The sample was subjected to a ramping profile from 40-90% relative humidity (RH) at 10% increments, maintaining the sample at each step until a stable weight had been achieved (dm/dt 0.004%, minimum step length 30 minutes, maximum step length 500 minutes) at 25° C. After completion of the sorption cycle, the sample was dried using the same procedure to 0% RH and then a second sorption cycle back to 40% RH. Two cycles were performed. The weight change during the sorption/desorption cycles were plotted, allowing for the hygroscopic nature of the sample to be determined. XRPD analysis was then carried out on any solid retained.

[2] = Stability Studies - Eight Week Study; conditions: 40° C./75% RH (uncapped), 80° C. (capped), ambient light and temperature (approx. 22° C.)
Experimental: About 5 mg of Compound 1, Form 1 was weighed into twenty-four, 1.5 mL glass vials. Each vial was placed at either 40° C./75% RH (uncapped vial), 80° C. (capped vial) and under ambient light and temperature (approx. 22° C., capped vial) for a total of 8 weeks. […] was removed from each condition for XRPD, ^1H NMR and HPLC purity analysis at 1 week, 2 weeks, 4 weeks and 8 weeks.

[3] = Stability Studies - One Week Study; conditions: 40° C./75% RH or 80° C./under ambient light for 1 week
Experimental: About 15 mg of Compound 1, Forms 1 and 2 were separately placed at either 40° C./75% RH or 80° C./under ambient light for 1 week. The resulting solids were analysed by XRPD and HPLC purity. No changes in Form 1 or Form 2 were observed under these conditions after 1 week.

C[C@@H]1CNC(=O)c2cc3ccc(C(=O)Nc4cnn(Cc5ccc(N)cc5)c4)nc3n21.Cl [Compound 1, Form 2, (R)—N-(1-(4-aminobenzyl)-1H-pyrazol-4-yl)-9-methyl-6-oxo-6,7,8,9-tetrahydropyrido[3′,2′:4,5]pyrrolo[1,2-a]pyrazine-2-carboxamide hydrochloride]
form by post-DVS XRPD analysis ([1]; listed as Form 2 of Compound 1, hydrochloride): no change in form | change in mass / mass uptake by DVS ([1]; at 90% RH, 25° C., listed as Form 2 of Compound 1, hydrochloride): 1.8%

C[C@@H]1CNC(=O)c2cc3ccc(C(=O)Nc4cnn(Cc5ccc(N)cc5)c4)nc3n21.Cl [Compound 1, Form 1, (R)—N-(1-(4-aminobenzyl)-1H-pyrazol-4-yl)-9-methyl-6-oxo-6,7,8,9-tetrahydropyrido[3′,2′:4,5]pyrrolo[1,2-a]pyrazine-2-carboxamide hydrochloride]
form by post-DVS XRPD analysis ([1]; listed as Form 1 of Compound 1, hydrochloride): remained as Form 1 | water uptake by DVS ([1]; at 90% RH, 25° C.): 0.2 equiv. of water | change in mass / mass uptake by DVS ([1]; at 90% RH, 25° C., listed as Form 1 of Compound 1, hydrochloride): +0.8% | hygroscopic nature by DVS ([1]; ramping 40-90% RH, 25° C., two cycles): slightly hygroscopic | change in purity by HPLC ([2]; 8 weeks): no significant change | change by XRPD and NMR analysis ([2]; after 8 weeks): no change | changes by XRPD and HPLC purity [3]: No changes
